# Key:
# [1] = molecular target: T1, Tyk2 (Homo sapiens, UniProt P29597); test: Tyk2 enzyme inhibition test (LANCE method); assay type: biochemical; conditions: for inhibition at 1 µM: test compound 1 μM, read-out: Inhibitory rate (%) Tyk2 1 μM; for inhibition at 10 µM: test compound 10 μM, read-out: Inhibitory rate (%) Tyk2 10 μM
# T1 construct: purchased Invitrogen
# Description: Tyk2 Enzyme Inhibition Test
# (§1) Tyk2 enzyme inhibitory activity of test compounds was measured by LANCE method (PerkinElmer). First, a test compound diluted with assay buffer (50 mM HEPES (pH=7.5), 10 mM MgCl2, 1 mM EGTA, 2 mM DTT, 0.01% Tween20, 0.01% BSA) was added to 384-well plate at 2 μL each. Then, a Tyk2 (Invitrogen) solution and a fluorescence-labeled peptide substrate (ULight-JAK1, PerkinElmer) solution diluted with assay buffer at 375 ng/mL and 300 nM, respectively were added at 2 μL each. Then, enzyme reaction was started by adding 2 μL each of ATP solution prepared with assay buffer at 30 μM. After the reaction at room temperature for 1 hr, Detection Buffer (PerkinElmer) prepared to be 20 mM EDTA, 4 nM europium-labeled anti-phosphotyrosine antibody (PerkinElmer) was added at 6 μL each. After standing at room temperature for 1 hr, fluorescence intensity (excitation wavelength 340 nm, fluorescence wavelength 665 nm, delay time 100 microsecond) was measured by a plate reader, Envision (PerkinElmer). The inhibitory activity of each compound was calculated as relative value where fluorescence intensity of a well without enzyme is considered as 100% inhibition.
# [2] = molecular target: T2, JAK1 (Homo sapiens, UniProt P23458); test: JAK1 enzyme inhibition test (LANCE method); assay type: biochemical; conditions: for inhibition at 1 µM: test compound 1 μM, read-out: Inhibitory rate (%) JAK1 1 μM
# T2 construct: purchased Invitrogen
# Description: JAK1 Enzyme Inhibition Test
# as §1, with “JAK1 enzyme” for “Tyk2 enzyme”, “a JAK1” for “a Tyk2”, “at 187.5” for “at 375”, “at 150” for “at 30”
# T2 sequence (P23458 whole entry): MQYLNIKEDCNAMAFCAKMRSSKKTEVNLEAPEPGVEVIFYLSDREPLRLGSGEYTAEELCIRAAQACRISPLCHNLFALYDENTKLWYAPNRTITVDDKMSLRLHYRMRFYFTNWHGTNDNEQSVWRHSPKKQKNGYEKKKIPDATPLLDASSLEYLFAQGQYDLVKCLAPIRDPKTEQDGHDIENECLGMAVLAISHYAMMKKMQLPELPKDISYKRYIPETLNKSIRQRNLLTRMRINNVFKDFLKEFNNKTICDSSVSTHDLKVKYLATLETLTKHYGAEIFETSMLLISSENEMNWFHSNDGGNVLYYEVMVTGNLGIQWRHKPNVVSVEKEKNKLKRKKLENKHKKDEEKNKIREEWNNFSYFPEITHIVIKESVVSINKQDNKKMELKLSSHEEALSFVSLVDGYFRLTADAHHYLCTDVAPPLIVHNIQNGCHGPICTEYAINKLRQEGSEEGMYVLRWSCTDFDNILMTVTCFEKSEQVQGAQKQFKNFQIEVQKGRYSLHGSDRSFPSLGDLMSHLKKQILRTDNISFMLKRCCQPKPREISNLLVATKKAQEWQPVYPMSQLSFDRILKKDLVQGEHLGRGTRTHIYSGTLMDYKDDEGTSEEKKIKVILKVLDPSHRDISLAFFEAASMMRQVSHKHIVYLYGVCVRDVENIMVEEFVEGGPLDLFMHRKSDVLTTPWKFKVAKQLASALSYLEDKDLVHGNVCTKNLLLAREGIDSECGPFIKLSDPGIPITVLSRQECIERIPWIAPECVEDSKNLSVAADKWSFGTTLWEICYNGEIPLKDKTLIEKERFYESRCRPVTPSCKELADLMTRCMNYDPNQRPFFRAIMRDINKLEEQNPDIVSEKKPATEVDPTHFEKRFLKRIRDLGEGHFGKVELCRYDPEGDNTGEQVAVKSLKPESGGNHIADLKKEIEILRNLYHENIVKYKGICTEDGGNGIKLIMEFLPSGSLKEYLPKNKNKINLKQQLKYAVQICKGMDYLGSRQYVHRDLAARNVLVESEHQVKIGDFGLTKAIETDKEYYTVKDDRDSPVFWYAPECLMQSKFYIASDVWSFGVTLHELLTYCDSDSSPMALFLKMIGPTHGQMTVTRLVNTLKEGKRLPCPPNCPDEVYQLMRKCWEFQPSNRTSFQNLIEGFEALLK
# T1 sequence (P29597 whole entry): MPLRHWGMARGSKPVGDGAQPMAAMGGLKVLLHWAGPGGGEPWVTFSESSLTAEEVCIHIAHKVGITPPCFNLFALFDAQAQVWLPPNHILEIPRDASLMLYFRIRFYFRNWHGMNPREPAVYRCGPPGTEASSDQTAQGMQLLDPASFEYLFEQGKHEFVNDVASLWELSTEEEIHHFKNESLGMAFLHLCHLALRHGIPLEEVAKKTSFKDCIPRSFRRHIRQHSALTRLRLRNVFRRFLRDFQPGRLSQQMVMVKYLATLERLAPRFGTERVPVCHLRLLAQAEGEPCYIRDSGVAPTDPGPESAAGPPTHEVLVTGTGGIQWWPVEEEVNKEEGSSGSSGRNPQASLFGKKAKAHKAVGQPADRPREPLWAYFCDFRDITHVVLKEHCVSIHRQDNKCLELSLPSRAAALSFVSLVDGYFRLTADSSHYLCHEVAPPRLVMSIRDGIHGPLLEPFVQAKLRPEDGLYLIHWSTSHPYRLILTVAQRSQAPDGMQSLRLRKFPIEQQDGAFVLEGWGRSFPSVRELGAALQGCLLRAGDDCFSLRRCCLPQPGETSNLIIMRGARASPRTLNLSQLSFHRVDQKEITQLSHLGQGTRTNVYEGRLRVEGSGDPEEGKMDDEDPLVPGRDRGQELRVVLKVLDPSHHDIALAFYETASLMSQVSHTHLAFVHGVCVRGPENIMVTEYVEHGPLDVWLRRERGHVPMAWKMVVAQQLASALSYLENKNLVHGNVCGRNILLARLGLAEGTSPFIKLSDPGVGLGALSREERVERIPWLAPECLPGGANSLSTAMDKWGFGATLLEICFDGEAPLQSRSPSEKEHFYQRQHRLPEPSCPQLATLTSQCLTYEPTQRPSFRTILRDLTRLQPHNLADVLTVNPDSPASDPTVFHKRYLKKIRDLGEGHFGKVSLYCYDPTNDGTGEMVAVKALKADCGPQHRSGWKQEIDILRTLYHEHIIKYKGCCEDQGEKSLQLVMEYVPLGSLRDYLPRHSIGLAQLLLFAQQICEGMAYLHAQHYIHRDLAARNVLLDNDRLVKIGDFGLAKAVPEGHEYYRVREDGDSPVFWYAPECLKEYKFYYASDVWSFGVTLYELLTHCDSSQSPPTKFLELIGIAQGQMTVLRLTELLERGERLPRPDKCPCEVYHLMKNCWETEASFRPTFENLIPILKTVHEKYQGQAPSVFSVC
inhibition at 1 µM [1],inhibition at 1 µM [2],inhibition at 10 µM [1],"inhibition at 10 µM ([2]; test compound 10 μM, read-out: Inhibitory rate (%) JAK1 10 μM)",Compound
97%,99%,,,"C[C@H]1CCC[C@H]1n1cc(-c2ccc(S(N)(=O)=O)cc2)c2c(=O)[nH]ccc21 (relative stereo) [Example 71, 4-(1-(cis-2-methylcyclopentyl)-4-oxo-4,5-dihydro-1H-pyrrolo[3,2-c]pyridin-3-yl)benzenesulfonamide]"
100%,90%,,,"C[C@H]1CCC[C@H]1n1cc(-c2csc(C(N)=O)c2)c2c(=O)[nH]ccc21 (relative stereo) [Example 85, 4-(1-(cis-2-methylcyclopentyl)-4-oxo-4,5-dihydro-1H-pyrrolo[3,2-c]pyridin-3-yl)thiophene-2-carboxamide]"
51%,40%,,,"O=c1[nH]ccc2c1c(-c1ccccc1)cn2C1CCCC1 [Example 1, 1-cyclopentyl-3-phenyl-1,5-dihydro-4H-pyrrolo[3,2-c]pyridin-4-one]"
97%,99%,,,"NS(=O)(=O)c1ccc(-c2cn(C3CCCC3)c3cc[nH]c(=O)c23)cc1 [Example 2, 4-(1-cyclopentyl-4-oxo-4,5-dihydro-1H-pyrrolo[3,2-c]pyridin-3-yl)benzenesulfonamide]"
96%,97%,,,"COC(=O)c1cc(-c2cn(C3CCCC3)c3cc[nH]c(=O)c23)cs1 [Example 3, methyl 4-(1-cyclopentyl-4-oxo-4,5-dihydro-1H-pyrrolo[3,2-c]pyridin-3-yl)thiophene-2-carboxylate]"
99%,99%,,,"NC(=O)c1cc(-c2cn(C3CCCC3)c3cc[nH]c(=O)c23)cs1 [Example 4, 4-(1-cyclopentyl-4-oxo-4,5-dihydro-1H-pyrrolo[3,2-c]pyridin-3-yl)thiophene-2-carboxamide]"
96%,97%,,,"O=c1[nH]ccc2c1c(-c1ccsc1)cn2C1CCCC1 [Example 5, 1-cyclopentyl-3-(3-thienyl)-1,5-dihydro-4H-pyrrolo[3,2-c]pyridin-4-one]"
99%,98%,,,"NS(=O)(=O)c1ccc(-c2nn(C3CCCCC3)c3cc[nH]c(=O)c23)cc1 [Example 6, 4-(1-cyclohexyl-4-oxo-4,5-dihydro-1H-pyrazolo[4,3-c]pyridin-3-yl)benzenesulfonamide]"
90%,95%,,,"CCC(CC)n1cc(-c2csc(C(=O)OC)c2)c2c(=O)[nH]ccc21 [Example 7, methyl 4-(4-oxo-1-(pentan-3-yl)-4,5-dihydro-1H-pyrrolo[3,2-c]pyridin-3-yl)thiophene-2-carboxylate]"
98%,98%,,,"CCC(CC)n1cc(-c2csc(C(N)=O)c2)c2c(=O)[nH]ccc21 [Example 8, 4-(4-oxo-1-(pentan-3-yl)-4,5-dihydro-1H-pyrrolo[3,2-c]pyridin-3-yl)thiophene-2-carboxamide]"
93%,97%,,,"CCC(CC)n1cc(-c2csc(C#N)c2)c2c(=O)[nH]ccc21 [Example 9, 4-(4-oxo-1-(pentan-3-yl)-4,5-dihydro-1H-pyrrolo[3,2-c]pyridin-3-yl)thiophene-2-carbonitrile]"
,,38%,,"O=c1[nH]ccc2c(-c3ccccc3)nn(-c3ccccc3)c12 [Example 10, 1,3-diphenyl-1,6-dihydro-7H-pyrazolo[3,4-c]pyridin-7-one]"
66%,55%,,,"O=c1[nH]ccc2c(-c3ccccc3)nn(-c3ccsc3)c12 [Example 11, 3-phenyl-1-(3-thienyl)-1,6-dihydro-7H-pyrazolo[3,4-c]pyridin-7-one]"
98%,98%,,,"COC(=O)c1cc(-c2nn(C3CCCC3)c3cc[nH]c(=O)c23)cs1 [Example 12, methyl 4-(1-cyclopentyl-4-oxo-4,5-dihydro-1H-pyrazolo[4,3-c]pyridin-3-yl)thiophene-2-carboxylate]"
99%,99%,,,"NC(=O)c1cc(-c2nn(C3CCCC3)c3cc[nH]c(=O)c23)cs1 [Example 13, 4-(1-cyclopentyl-4-oxo-4,5-dihydro-1H-pyrazolo[4,3-c]pyridin-3-yl)thiophene-2-carboxamide]"
98%,99%,,,"N#Cc1cc(-c2nn(C3CCCC3)c3cc[nH]c(=O)c23)cs1 [Example 14, 4-(1-cyclopentyl-4-oxo-4,5-dihydro-1H-pyrazolo[4,3-c]pyridin-3-yl)thiophene-2-carbonitrile]"
97%,99%,,,"NS(=O)(=O)c1ccc(-c2nn(C3CCOCC3)c3cc[nH]c(=O)c23)cc1 [Example 15, 4-(4-oxo-1-(tetrahydro-2H-pyran-4-yl)-4,5-dihydro-1H-pyrazolo[4,3-c]pyridin-3-yl)benzenesulfonamide]"
88%,93%,,,"NS(=O)(=O)c1ccc(-c2cn(C3CCOCC3)c3cc[nH]c(=O)c23)cc1 [Example 16, 4-(4-oxo-1-(tetrahydro-2H-pyran-4-yl)-4,5-dihydro-1H-pyrrolo[3,2-c]pyridin-3-yl)benzenesulfonamide]"
69%,87%,,,"CCC(COC)n1cc(-c2ccc(S(N)(=O)=O)cc2)c2c(=O)[nH]ccc21 (stereo not shown) [Example 17, 4-(1-(1-methoxybutan-2-yl)-4-oxo-4,5-dihydro-1H-pyrrolo[3,2-c]pyridin-3-yl)benzenesulfonamide]"
80%,93%,,,"NS(=O)(=O)c1ccc(-c2cn(C3CCOC3)c3cc[nH]c(=O)c23)cc1 (stereo not shown) [Example 18, 4-(4-oxo-1-(tetrahydrofuran-3-yl)-4,5-dihydro-1H-pyrrolo[3,2-c]pyridin-3-yl)benzenesulfonamide]"
,,27%,44%,"NS(=O)(=O)c1ccc(Cn2nc(-c3ccccc3)c3cc[nH]c(=O)c32)cc1 [Example 19, 4-((7-oxo-3-phenyl-6,7-dihydro-1H-pyrazolo[3,4-c]pyridin-1-yl)methyl)benzenesulfonamide]"
35%,59%,,,"CCC(COC)n1cc(-c2ccc(CC#N)cc2)c2c(=O)[nH]ccc21 (stereo not shown) [Example 20, (4-(1-(1-methoxybutan-2-yl)-4-oxo-4,5-dihydro-1H-pyrrolo[3,2-c]pyridin-3-yl)phenyl)acetonitrile]"
95%,97%,,,"COC(=O)c1cc(-c2nn(C3CCOCC3)c3cc[nH]c(=O)c23)cs1 [Example 21, methyl 4-(4-oxo-1-(tetrahydro-2H-pyran-4-yl)-4,5-dihydro-1H-pyrazolo[4,3-c]pyridin-3-yl)thiophene-2-carboxylate]"
53%,77%,,,"N#CCc1ccc(-c2cn(C3CCOC3)c3cc[nH]c(=O)c23)cc1 (stereo not shown) [Example 22, (4-(4-oxo-1-(tetrahydrofuran-3-yl)-4,5-dihydro-1H-pyrrolo[3,2-c]pyridin-3-yl)phenyl)acetonitrile]"
98%,98%,,,"O=C(O)c1cc(-c2nn(C3CCOCC3)c3cc[nH]c(=O)c23)cs1 [Example 23, 4-(4-oxo-1-(tetrahydro-2H-pyran-4-yl)-4,5-dihydro-1H-pyrazolo[4,3-c]pyridin-3-yl)thiophene-2-carboxylic acid]"
33%,35%,,,"CCC(COC)n1cc(-c2ccc(C#N)cc2)c2c(=O)[nH]ccc21 (stereo not shown) [Example 24, 4-(1-(1-methoxybutan-2-yl)-4-oxo-4,5-dihydro-1H-pyrrolo[3,2-c]pyridin-3-yl)benzonitrile]"
71%,77%,,,"N#CCc1ccc(-c2cn(C3CCOCC3)c3cc[nH]c(=O)c23)cc1 [Example 25, (4-(4-oxo-1-(tetrahydro-2H-pyran-4-yl)-4,5-dihydro-1H-pyrrolo[3,2-c]pyridin-3-yl)phenyl)acetonitrile]"
41%,20%,,,"CCC(COC)n1cc(-c2ccc(C(N)=O)cc2)c2c(=O)[nH]ccc21 (stereo not shown) [Example 26, 4-(1-(1-methoxybutan-2-yl)-4-oxo-4,5-dihydro-1H-pyrrolo[3,2-c]pyridin-3-yl)benzamide]"
